These results are taken from patent US5158940A (priority 1990, dated 1992).

For one data set, the system named is rheumatoid arthritis. It counts as in vivo, person. The text has this:
A person was initially diagnosed in 1975 with polyarthritis and an elevated serum rheumatoid factor level. Since then, the patient had required almost uninterrupted treatment with either supraphysiologic doses of steroid or remission-inducing agents. These included hydroxycloroquine, gold salts, cytoxan and most recently, penicillamine together with prednisone.
Prior to initiating suramin therapy, penicillamine and prednisone were discontinued and the patient was placed on physiologic replacement doses of hydrocortisone. […] Their serum rheumatoid factor titer was 1:2560. Serum antinuclear antibodies were absent and both anti-DNA screen and LE cell test were negative.

For data set [1] the following is noted: in vivo; cited from earlier work.
Data set [2] has as its system reverse transcriptase enzyme. As to conditions: in vitro; JAMA 258 p. 1347-51 (1987); cited from earlier work.
Data set [3] has as its system human immunodeficiency virus (HIV). The following applies: in vitro; JAMA 258 p. 1347-51 (1987); cited from earlier work.
The subject of another data set is various growth factors. The following applies: in vitro; J. Cellular Physiology 132 p. 143-8 (1987); cited from earlier work.
The test system of data set [4] is cytoplasmic and intranuclear enzymes. As to conditions: Cancer Res. 47 p. 4694-8 (1987) and J. Clin. Onc. 7 p. 499-508 (1989); cited from earlier work.
For a further data set, the system named is parasitic infections. As to conditions: one gram bolus parenterally once per week for six weeks, total six grams; cited from earlier work.
The mark [5] stands for this setting: nine months after initial start, no suramin after third cycle at six months.
The mark [6] stands for this setting: treatment period plus three months afterwards without suramin.

The structures appear in SMILES notation. Counter-ions that a name gives are not always drawn.

With `Cc1ccc(C(=O)Nc2ccc(S(=O)(=O)O)c3cc(S(=O)(=O)O)cc(S(=O)(=O)O)c23)cc1NC(=O)c1cccc(NC(=O)Nc2cccc(C(=O)Nc3cc(C(=O)Nc4ccc(S(=O)(=O)O)c5cc(S(=O)(=O)O)cc(S(=O)(=O)O)c45)ccc3C)c2)c1` [Suramin, hexasodium salt of 8,8'-(carbonyl-bis(imino-3,1-phenylenecarbonylimino(4-methyl-3,1-phenylene)carbonylimo))bis-1,3,5-naphthalenetrisulfonic acid], in the data set with rheumatoid arthritis (at the end of therapy), the “formal rheumatologic evaluation (inflammatory joint disease, synovial proliferation)” value is “virtually no inflammatory joint disease with only minimal synovial proliferation in the ulnar carpal region of their right wrist”. Also, the “joint abnormalities in follow up hand photograph” value with rheumatoid arthritis (follow up hand photograph) is “failed to show any significant change in their minimal joint abnormalities”. For the same compound, the “hematologic, hepatic or renal toxicity” value in the data set on rheumatoid arthritis (in vivo) is listed as “did not experience any significant hematologic, hepatic or renal toxicity”. Moreover, the “size of rheumatoid nodules” value with rheumatoid arthritis (initially documented after three months, more pronounced at five months) is listed as “regression in the size of their multiple rheumatoid nodules”. Also, in the data set with rheumatoid arthritis (setting [5]), the “arthritic symptoms at nine months” value was “continued to remain without arthritic symptoms” and the “size of remaining rheumatoid nodules” value is recorded as “remained unchanged”. In the data set with rheumatoid arthritis (start of third cycle at five months), the “disappearance of rheumatoid nodules” value is “complete disappearance of as many as a third”. For the same compound, in the data set with rheumatoid arthritis (setting [6]), the arthritic symptoms result is “improvement in their arthritic symptoms” and the synovial swelling entry was “decreased synovial swelling”. For the same compound, the plasma half-life in data set [1] is 45 to 55 days. The “ability to inhibit the reverse transcriptase enzyme” value in data set [2] was “inhibit the reverse transcriptase enzyme”. Also, in data set [3], the “ability to revert the cytopathic effect of HIV” value was “revert the cytopathic effect of human immunodeficiency virus (HIV) in vitro”. The “ability to inhibit the activity of various growth factors” value with various growth factors is reported as “inhibit the activity of various growth factors in vitro”. In addition, the “binding to a variety of cytoplasmic and intranuclear enzymes” value in data set [4] is “bind to a variety of cytoplasmic and intranuclear enzymes”. Further, the “effectiveness for treating parasitic infections” value in the data set with parasitic infections is listed as “generally effective for treating parasitic infections”.
